Tests used:
Human Factor XIa = Human Factor XIa (Homo sapiens, UniProt P03951); test: Inhibition of human coagulation factor XIa by absorptiometry (substrate S-2366); assay type: biochemical; details: 37° C., 20 min incubation, absorbance 405 nm; read-out: hFXIa IC50
Procedure: Example 50: Detection of the Biological Activity of the Compounds of the Present Invention on the Inhibition of Human Coagulation Factor XIa by Absorptiometry
Buffer: 145 mM NaCl, 5 mM KCl, 1 mg/mL PEG 8000, 30 mM HEPES, pH 7.4
10 mM test compound dissolved in 100% DMSO was diluted with 100% DMSO to […]; 98 μL of FXIa enzyme solution (77.7 ng/mL) was added to each well of a 96-well plate, and 98 μL of buffer was added to the blank wells. 2 μL of compounds of different concentrations were added, and the blank and control wells were added with DMSO instead. They were mixed with a shaker, and incubated at 37° C. for 20 minutes.
Finally, 100 μL of 800 μM substrate was added to each well, and its absorbance was measured at 405 nm.

human plasma = test: Anticoagulant effect on human plasma in vitro (APTT determination); assay type: biochemical; details: for aPTT EC1.5×: concentration giving APTT of 1.5× blank control; for aPTT EC2×: concentration giving APTT of 2× blank control
Procedure: Example 51: Determination of the Anticoagulant Effect of the Compounds of the Present Invention on Human Plasma In Vitro
Plasma: Human blood was collected in a vacuum blood collection tube containing 3.2% sodium citrate (volume ratio 1:9), centrifuged at 3000 rpm for 10 min at room temperature, and the plasma was collected, divided into EP tubes, and stored at −80° C.
Reagents: APTT assay kit (Activated partial thromboplastin time assay kit, mindray), calcium chloride solution.
Instrument: coagulation meter (mindray, C2000-A)
The frozen human plasma in aliquots was thawed at room temperature and mixed well. 10 mM test compound dissolved in 100% DMSO was diluted with 100% DMSO to 1500, 750, 375, 187.5, 93.75, 46.88, 23.44, 11.72 μM. 98 μL of human plasma was added to a 1.5 mL EP tube, then 2 μL of compounds of different concentrations were added, and 2 μL of 100% DMSO was added for the blank group. They were incubated under a water bath at 37° C. for 10 min, and the samples were placed in the corresponding position of the coagulation analyzer to conduct APTT determination of the compounds.
Curve fitting was performed with GraphPad Prism software, and EC1.5× and EC2× values were calculated respectively, i.e., the concentrations of the compounds corresponding to the APTT of 1.5× and 2× blank control group.

Rat pharmacokinetics = assay type: in vivo, SD rats; design: AUC: concentration or dose not given beside the values; details: for AUC / Cmax / Tmax / clearance / half-life / Vd: male, SD, plasma; for Vd: read-out: Vss
Text: (§1) Example 53: Investigation of the Pharmacokinetic Characteristics of the Compounds of the Present Invention
(§2) SD rats: male, 180-250 g, purchased from Guangdong Medical Laboratory Animal Center. Cynomolgus monkey: male, 4-6 kg, purchased from Guangzhou Chunsheng Biological Research Institute Co., Ltd. Beagle dog: male, 8-12 kg, developed in Kanglong Chemical (Ningbo) New Drug Technology Co., Ltd.
(§3) Reagents: DMSO (dimethyl sulfoxide), PEG-400 (polyethylene glycol 400), normal brine, heparin, acetonitrile, formic acid, and propranolol (internal standard) are commercially available.
(§4) Instrumentation: Thermo Fisher Scientific LC-MS (U300 UPLC, TSQ […] ULTRA triple quadrupole mass spectrometer).
(§5) The compound was weighed and dissolved in DMSO-PEG-400-physiological brine (5:60:35, v/v/v) system. After the rats/monkeys were administered intravenously or by gavage, 200 μL of venous blood was collected at 5 min (not collected when administered by gavage), 15 min, 30 min, 1 h, 2 h, 4 h, 6 h, 8 h, and 24 h in heparinized EP tubes, centrifuged at 12000 rpm for 2 min, and the plasma was frozen at −80° C. for testing. A certain amount of the test substance was precisely weighed and dissolved in DMSO to 1 mg/mL, which was used as a stock solution. An appropriate amount of compound stock solution was accurately pipetted and diluted with acetonitrile to prepare a standard series of solutions. 20 μL of each of the above standard series solutions were accurately pipetted, added with 180 μL of blank plasma, vortexed and mixed to prepare plasma samples equivalent to plasma concentrations of 1, 3, 10, 30, 100, 300, 1000, 3000 and 5000 ng/mL. Two-sample analysis was performed for each concentration to establish a standard curve. 20 μL of plasma was taken out, added with 200 μL of internal standard propranolol (5 ng/mL) in acetonitrile, vortexed and mixed. It was centrifuged at 4000 rpm for 5 min, and the supernatant was collected for LC-MS analysis. LC-MS detection conditions were as follows:
(§6) Chromatographic column: Thermo Scientific […] GOLD C-18 UPLC column, 100*2.1 mm, 1.9 μm.
(§7) Mobile phase: water (0.1% formic acid)-acetonitrile for gradient elution according to the table below.
(§8) After blood drug concentrations being detected by LC-MS, WinNonlin 6.1 software was used to calculate pharmacokinetic parameters by non-compartmental model method.

[1] = Beagle dog pharmacokinetics; assay type: in vivo; details: for AUC / Cmax / Tmax / clearance / half-life / Vd: male, plasma; for Vd: read-out: Vss
Text: as §1, §2, §3, §4, §5, §6, §7, §8

Caco-2 permeability = assay type: in vitro ADME; details: human; for efflux ratio at 2 h: Caco-2, Papp(B-A)/Papp(A-B); for Papp A→B at 2 h / Papp B→A at 2 h: Caco-2 monolayer, 2h incubation
Procedure: Example 54: Investigation of the Caco-2 Data of the Compounds of the Present Invention
Medium: DMEM (Corning), FBS (Corning), double antibody (Solarbio), 96-well HTS transwell plate (Corning), Caco-2 cells.
Experimental method: Caco-2 cells were cultured on 96-well HTS transwell plate for 14-18 days, and the TEER value of each well was detected to ensure that the cells in each well formed a complete monolayer. Drug was added and it was incubated for 2h to detect the drug concentrations of A-B and B-A.
Data processing: PappA-B and PappB-A values were calculated: Papp=(VA×[drug]acceptor)/(Area×Time×[drug]initial, donor); Efflux Ratio was calculated: Efflux Ratio=Papp(B-A)/Papp(A-B).

Chain of Human Factor XIa (P03951 388-625 limits assumed): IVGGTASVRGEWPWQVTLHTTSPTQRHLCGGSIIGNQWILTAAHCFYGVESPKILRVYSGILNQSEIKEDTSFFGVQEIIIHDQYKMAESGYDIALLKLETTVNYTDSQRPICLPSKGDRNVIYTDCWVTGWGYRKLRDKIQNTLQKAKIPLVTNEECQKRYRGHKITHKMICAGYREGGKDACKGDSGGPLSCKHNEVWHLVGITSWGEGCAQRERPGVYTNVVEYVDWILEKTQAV
Chain of Human Factor XIa (P03951 19-387 partner limits assumed): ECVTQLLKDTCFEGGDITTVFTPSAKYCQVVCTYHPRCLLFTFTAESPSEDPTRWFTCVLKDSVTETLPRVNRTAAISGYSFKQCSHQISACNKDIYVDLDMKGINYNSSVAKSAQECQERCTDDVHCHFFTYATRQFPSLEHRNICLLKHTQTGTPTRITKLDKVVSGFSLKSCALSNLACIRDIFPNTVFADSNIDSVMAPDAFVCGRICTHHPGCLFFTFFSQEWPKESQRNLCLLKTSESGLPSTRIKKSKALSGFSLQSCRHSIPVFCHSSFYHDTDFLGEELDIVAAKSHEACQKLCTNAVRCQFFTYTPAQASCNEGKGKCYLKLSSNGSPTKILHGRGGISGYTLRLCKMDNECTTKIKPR

| IC50 (Human Factor XIa) | F (Rat pharmacokinetics; ig) | AUC (Rat pharmacokinetics; iv) | Cmax (Rat pharmacokinetics; iv) | Tmax (Rat pharmacokinetics; iv) | clearance (Rat pharmacokinetics; iv) | half-life (Rat pharmacokinetics; iv) | Vd (Rat pharmacokinetics; iv) | AUC (Rat pharmacokinetics; po, ig) | Cmax (Rat pharmacokinetics; po, ig) | Tmax (Rat pharmacokinetics; po, ig) | half-life (Rat pharmacokinetics; po, ig) | F ([1]; ig) | AUC ([1]; iv) | Cmax ([1]; iv) | Tmax ([1]; iv) | clearance ([1]; iv) | half-life ([1]; iv) | Compound | aPTT EC1.5× (human plasma) | aPTT EC2× (human plasma) | also measured |
| --- | --- | --- | --- | --- | --- | --- | --- | --- | --- | --- | --- | --- | --- | --- | --- | --- | --- | --- | --- | --- | --- |
| 7.61 nM | 24.6% | 1020 ng·h/mL | 2500 ng/mL | 0.083 h | 16.4 mL/min/kg | 0.181 h | 0.269 L/kg | 2510 ng·h/mL | 768 ng/mL | 1.25 h | 2.52 h | 65.5% | 1410 ng·h/mL | 2580 ng/mL | 0.083 h | 11.8 mL/min/kg | 4.2 h | COc1nn([C@@H](Cc2ccccc2)C(=O)Nc2ccc(C(=O)O)cc2)c(=O)cc1-c1cc(Cl)ccc1C(C)=O [Example 19, (S)-4-(2-(4-(2-acetyl-5-chlorophenyl)-3-methoxy-6-oxopyridazin-1(6H)-yl)-3-phenylpropanamido)benzoic acid] | 0.641 µM | 2.817 µM | Vd ([1]; iv): 0.8 L/kg; AUC ([1]; po, ig): 9230 ng·h/mL; Cmax ([1]; po, ig): 2320 ng/mL; Tmax ([1]; po, ig): 1.25 h; half-life ([1]; po, ig): 3.6 h; efflux ratio at 2 h (Caco-2 permeability): 16.3; Papp A→B at 2 h (Caco-2 permeability): 1.54 ×10⁻⁶ cm/s; Papp B→A at 2 h (Caco-2 permeability): 25.1 ×10⁻⁶ cm/s |
| 1.65 nM | 5.4% | 922 ng·h/mL | 2200 ng/mL | 0.083 h | 23.5 mL/min/kg | 1.65 h | 0.741 L/kg | 788 ng·h/mL | 242 ng/mL | 0.333 h | 3.77 h | 49.6% | 756 ng·h/mL | 2190 ng/mL | 0.083 h | 22.7 mL/min/kg | 7.77 h | CCC(=O)c1ccc(Cl)cc1-c1cc(=O)n([C@@H](Cc2ccccc2)C(=O)Nc2ccc(C(=O)O)cc2)nc1OC [Example 32] | 0.483 µM | 1.319 µM | Vd ([1]; iv): 2.64 L/kg; AUC ([1]; po, ig): 3770 ng·h/mL; Cmax ([1]; po, ig): 1600 ng/mL; Tmax ([1]; po, ig): 0.25 h; half-life ([1]; po, ig): 4.51 h; efflux ratio at 2 h (Caco-2 permeability): 18.3; Papp A→B at 2 h (Caco-2 permeability): 1.2 ×10⁻⁶ cm/s; Papp B→A at 2 h (Caco-2 permeability): 21.9 ×10⁻⁶ cm/s |

— patent US20230027295A1, “FXIA INHIBITORS AND PREPARATION METHOD THEREFOR AND PHARMACEUTICAL USE THEREOF” (Shenzhen Salubris Pharmaceuticals Co., Ltd., priority 2019, published 2023)
